Measured values: ChEMBL document CHEMBL2417538, “Antithrombotic effects of LB30870, a potent, orally active, selective and direct thrombin inhibitor, and pharmacokinetics of its prodrug” (Bioorg Med Chem Lett, 2013)
In brackets after ≈: the same amount, converted by molar mass.

How the values were obtained:
[1] = Aqueous solubility of the compound at pH 3.04; format: physicochemical; details: aqueous solution
[2] = Dissociation constant, pKa of the compound by potentiometric titration; format: physicochemical
[3] = tested on: Rattus norvegicus; assay: AUC in Sprague-Dawley rat at 30 mg/kg, po assessed as LB30870; format: ADME, organism-based, Plasma; set-up: dose 30 mg/kg, route oral; details: in vivo
[4] = tested on: Canis familiaris; assay: AUC in Beagle dog at 10 mg/kg, po assessed as LB30870; format: ADME, organism-based, Canis lupus familiaris, Plasma; set-up: dose 10 mg/kg, route oral; details: in vivo
[5] = tested on: Canis familiaris; assay: Cmax in Beagle dog at 10 mg/kg, po assessed as LB30870; format: ADME, organism-based, Canis lupus familiaris; set-up: dose 10 mg/kg, route oral; details: in vivo
[6] = Aqueous solubility of the compound at pH 6.96; format: physicochemical; details: aqueous solution
[7] = tested on: Canis familiaris; assay: AUC in Beagle dog at 10 mg/kg, po assessed as LB30887; format: ADME, organism-based, Canis lupus familiaris, Plasma; set-up: dose 10 mg/kg, route oral; details: in vivo
[8] = tested on: Rattus norvegicus; assay: Cmax in Sprague-Dawley rat at 30 mg/kg, po assessed as LB30887; format: ADME, organism-based; set-up: dose 30 mg/kg, route oral; details: in vivo
[9] = tested on: Rattus norvegicus; assay: Oral bioavailability in Sprague-Dawley rat at 30 mg/kg assessed as LB30870; format: ADME, organism-based; details: in vivo
[10] = tested on: Rattus norvegicus; assay: AUC in Sprague-Dawley rat at 30 mg/kg, po assessed as LB30887; format: ADME, organism-based, Plasma; set-up: dose 30 mg/kg, route oral; details: in vivo
[11] = tested on: Canis familiaris; assay: Oral bioavailability in Beagle dog at 10 mg/kg assessed as LB30870; format: ADME, organism-based, Canis lupus familiaris; details: in vivo
[12] = Distribution coefficient, log D of the compound at pH 7 by potentiometric titration; format: physicochemical; details: octanol/water
[13] = Aqueous solubility of the compound at pH 4.73; format: physicochemical; details: aqueous solution
[14] = tested on: Canis familiaris; assay: Cmax in Beagle dog at 10 mg/kg, po assessed as LB30887; format: ADME, organism-based, Canis lupus familiaris; set-up: dose 10 mg/kg, route oral; details: in vivo
[15] = tested on: Rattus norvegicus; assay: Cmax in Sprague-Dawley rat at 30 mg/kg, po assessed as LB30870; format: ADME, organism-based; set-up: dose 30 mg/kg, route oral; details: in vivo
[16] = Aqueous solubility of the compound at pH 6.3; format: physicochemical; details: aqueous solution
[17] = Aqueous solubility of the compound at pH 9.0; format: physicochemical; details: aqueous solution
[18] = Aqueous solubility of the compound at pH 7.4; format: physicochemical; details: aqueous solution
[19] = tested on: Rattus norvegicus; assay: Anticoagulant activity in Sprague-Dawley rat deep vein thrombosis model assessed as prothrombin time change at 0.125 mg/kg, iv administered as bolus and 5 ug/kg/min administered as infusion relative to control; format: functional
[20] = target: Tissue-type plasminogen activator (Homo sapiens, UniProt P00750); assay: Inhibition of human t-PA
[21] = tested on: Rattus norvegicus; assay: Anticoagulant activity in Sprague-Dawley rat deep vein thrombosis model assessed as prothrombin time change at […], iv administered as bolus and 2.5 ug/kg/min administered as infusion relative to control; format: functional
[22] = tested on: Rattus norvegicus; assay: Anticoagulant activity in Sprague-Dawley rat deep vein thrombosis model assessed as prothrombin time change at 0.044 mg/kg, iv administered as bolus and 1.75 ug/kg/min administered as infusion relative to control; format: functional
[23] = tested on: Rattus norvegicus; assay: Anticoagulant activity in Sprague-Dawley rat deep vein thrombosis model assessed as wet clot weight at 0.044 mg/kg, iv administered as bolus and 1.75 ug/kg/min administered as infusion (reference value: 83 +/- 5.1 mg); format: functional
[24] = tested on: Rattus norvegicus; assay: Anticoagulant activity in Sprague-Dawley rat deep vein thrombosis model assessed as prothrombin time change at 0.025 mg/kg, iv administered as bolus and 1 ug/kg/min administered as infusion relative to control; format: functional
[25] = tested on: Rattus norvegicus; assay: Anticoagulant activity in Sprague-Dawley rat deep vein thrombosis model assessed as reduction in wet clot weight at 35 ug/kg, iv administered as infusion; format: functional
[26] = target: Plasminogen (Homo sapiens, UniProt P00747); assay: Inhibition of human plasmin
[27] = tested on: Rattus norvegicus; assay: Anticoagulant activity in Sprague-Dawley rat deep vein thrombosis model assessed as activated partial thromboplastin time change at […], iv administered as bolus and 2.5 ug/kg/min administered as infusion relative to control; format: functional
[28] = tested on: Rattus norvegicus; assay: Anticoagulant activity in Sprague-Dawley rat deep vein thrombosis model assessed as activated partial thromboplastin time change at 0.044 mg/kg, iv administered as bolus and 1.75 ug/kg/min administered as infusion relative to control; format: functional
[29] = tested on: Rattus norvegicus; assay: Anticoagulant activity in Sprague-Dawley rat deep vein thrombosis model assessed as activated partial thromboplastin time change at 0.25 mg/kg, iv administered as bolus and 10 ug/kg/min administered as infusion relative to control; format: functional
[30] = tested on: Rattus norvegicus; assay: Anticoagulant activity in Sprague-Dawley rat deep vein thrombosis model assessed as wet clot weight at […], iv administered as bolus and 2.5 ug/kg/min administered as infusion (reference value: 83 +/- 5.1 mg); format: functional
[31] = Plasma protein binding in rat at 1 ug/ml by ultra-filtration method; format: ADME, cell-free; details: read-out: PPB (converted)
[32] = Plasma protein binding in human at 1 ug/ml by ultra-filtration method; format: ADME, cell-free; details: read-out: PPB (converted)
[33] = tested on: Rattus norvegicus; assay: Anticoagulant activity in Sprague-Dawley rat deep vein thrombosis model assessed as prothrombin time change at 0.25 mg/kg, iv administered as bolus and 10 ug/kg/min administered as infusion relative to control; format: functional
[34] = target: Trypsin (Homo sapiens, UniProt P07477+P07478+P35030); assay: Inhibition of human trypsin; format: protein assay
[35] = tested on: Rattus norvegicus; assay: Anticoagulant activity in Sprague-Dawley rat deep vein thrombosis model assessed as activated partial thromboplastin time change at 0.125 mg/kg, iv administered as bolus and 5 ug/kg/min administered as infusion relative to control; format: functional
[36] = tested on: Rattus norvegicus; assay: Anticoagulant activity in Sprague-Dawley rat deep vein thrombosis model assessed as reduction in wet clot weight administered as iv bolus followed by infusion relative to control; format: functional, organism-based
[37] = tested on: Rattus norvegicus; assay: Anticoagulant activity in Sprague-Dawley rat deep vein thrombosis model assessed as wet clot weight at 0.125 mg/kg, iv administered as bolus and 5 ug/kg/min administered as infusion (reference value: 83 +/- 5.1 mg); format: functional
[38] = target: Coagulation factor X (Homo sapiens, UniProt P00742); assay: Inhibition of human factor 10a
[39] = tested on: Rattus norvegicus; assay: Anticoagulant activity in Sprague-Dawley rat deep vein thrombosis model assessed as activated partial thromboplastin time change at 0.025 mg/kg, iv administered as bolus and 1 ug/kg/min administered as infusion relative to control; format: functional

Coagulation factor X, sequence (P00742 41-179 limits assumed): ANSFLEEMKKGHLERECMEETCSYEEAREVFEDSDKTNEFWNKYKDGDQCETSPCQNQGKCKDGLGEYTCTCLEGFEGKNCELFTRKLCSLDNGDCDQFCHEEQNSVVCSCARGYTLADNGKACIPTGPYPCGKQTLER
Coagulation factor X, sequence (P00742 235-488 limits assumed): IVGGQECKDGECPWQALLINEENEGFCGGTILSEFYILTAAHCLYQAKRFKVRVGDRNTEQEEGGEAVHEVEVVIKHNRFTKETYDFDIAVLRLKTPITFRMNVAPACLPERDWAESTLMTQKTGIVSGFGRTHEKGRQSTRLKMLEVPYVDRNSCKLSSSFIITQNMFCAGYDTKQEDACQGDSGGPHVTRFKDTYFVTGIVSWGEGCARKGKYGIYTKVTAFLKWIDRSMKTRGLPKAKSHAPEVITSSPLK
Plasminogen, sequence (P00747 97-580 limits assumed): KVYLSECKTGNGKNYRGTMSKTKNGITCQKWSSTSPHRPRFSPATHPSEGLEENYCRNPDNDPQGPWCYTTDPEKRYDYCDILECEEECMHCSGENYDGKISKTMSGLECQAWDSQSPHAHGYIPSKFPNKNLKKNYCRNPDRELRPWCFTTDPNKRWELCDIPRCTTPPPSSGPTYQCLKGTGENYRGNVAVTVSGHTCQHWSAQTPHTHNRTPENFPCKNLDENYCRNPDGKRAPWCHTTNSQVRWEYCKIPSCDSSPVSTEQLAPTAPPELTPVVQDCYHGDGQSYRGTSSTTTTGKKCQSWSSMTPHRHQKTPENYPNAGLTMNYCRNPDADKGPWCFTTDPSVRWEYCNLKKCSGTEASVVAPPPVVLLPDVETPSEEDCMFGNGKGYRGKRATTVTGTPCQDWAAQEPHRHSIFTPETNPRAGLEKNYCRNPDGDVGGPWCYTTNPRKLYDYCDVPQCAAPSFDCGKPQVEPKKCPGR
Plasminogen, sequence (P00747 581-810 limits assumed): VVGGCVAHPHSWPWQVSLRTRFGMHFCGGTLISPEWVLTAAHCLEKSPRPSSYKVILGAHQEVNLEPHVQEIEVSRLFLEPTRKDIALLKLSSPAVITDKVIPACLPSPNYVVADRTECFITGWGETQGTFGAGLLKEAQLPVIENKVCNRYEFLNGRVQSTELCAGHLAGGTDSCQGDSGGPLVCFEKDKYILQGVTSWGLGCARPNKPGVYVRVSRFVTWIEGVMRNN
Tissue-type plasminogen activator, sequence (P00750 whole entry, the tested form may be a part): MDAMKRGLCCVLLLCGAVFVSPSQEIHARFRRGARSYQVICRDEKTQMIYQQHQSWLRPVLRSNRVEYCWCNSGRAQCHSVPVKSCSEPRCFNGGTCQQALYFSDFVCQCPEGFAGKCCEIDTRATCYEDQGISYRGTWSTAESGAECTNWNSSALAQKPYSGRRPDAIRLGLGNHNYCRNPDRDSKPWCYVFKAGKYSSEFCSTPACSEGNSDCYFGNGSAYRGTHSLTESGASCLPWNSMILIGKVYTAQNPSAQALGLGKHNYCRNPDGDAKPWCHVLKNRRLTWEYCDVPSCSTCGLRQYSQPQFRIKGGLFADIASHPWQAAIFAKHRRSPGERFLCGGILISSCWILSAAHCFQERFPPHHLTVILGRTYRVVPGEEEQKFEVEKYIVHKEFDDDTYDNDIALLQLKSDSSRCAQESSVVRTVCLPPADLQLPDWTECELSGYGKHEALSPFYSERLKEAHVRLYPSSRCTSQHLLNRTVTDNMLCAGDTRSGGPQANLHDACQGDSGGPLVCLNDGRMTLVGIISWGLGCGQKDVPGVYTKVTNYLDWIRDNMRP

## CCOC(=O)CN[C@H](C(=O)N1CCC[C@H]1C(=O)NCc1ccc(/C(N)=N/O)s1)C(c1ccccc1)c1ccccc1
[1]
  solubility: 550 µg/mL (≈ 952 µM)
[2]
  pKa: 3.98
[3]
  AUC: 38 µg·min/mL
[4]
  AUC: 491 µg·min/mL
[5]
  Cmax: 3700 ng/mL
[6]
  solubility: < 10 µg/mL
[7]
  AUC: 100 µg·min/mL
[8]
  Cmax: 1740 ng/mL
[9]
  F: 13%
[10]
  AUC: 203 µg·min/mL
[11]
  F: 35%
[12]
  logD: 1.74
[13]
  solubility: 10 µg/mL (≈ 17.3 µM)
[14]
  Cmax: 2100 ng/mL
[15]
  Cmax: 440 ng/mL

## CCOC(=O)CN[C@@H](C(=O)N1CC[C@H]1C(=O)NCc1ccc(/C(N)=N\O)cc1)C1CCCCC1 [XIMELAGATRAN]
[2]
  pKa: 4.73
[12]
  logD: 0.41

## CCCCCCOC(=O)NC(=N)c1ccc(NCc2nc3cc(C(=O)N(CCC(=O)OCC)c4ccccn4)ccc3n2C)cc1 [DABIGATRAN ETEXILATE]
[16]
  solubility: 2.3 µg/mL (≈ 3.66 µM)
[12]
  logD: 3.7
[17]
  solubility: 0.3 µg/mL (≈ 0.478 µM)
[18]
  solubility: 0.4 µg/mL (≈ 0.637 µM)

## N=C(N)c1ccc(CNC(=O)[C@@H]2CCN2C(=O)[C@H](NCC(=O)O)C2CCCCC2)cc1
[19]
  fold change (FC): 2.72
[20]
  Ki: 1.51 µM
[21]
  fold change (FC): 1.46
[22]
  fold change (FC): 1.42
[23]
  Activity: 25.6 mg
[24]
  fold change (FC): 1.13
[25]
  ED50: 1.4 µg/kg/min
[26]
  Ki: 1.8 µM
[27]
  fold change (FC): 1.83
[28]
  fold change (FC): 1.98
[29]
  fold change (FC): 6.05
[30]
  Activity: 15.9 mg
[31]
  fraction unbound at 1 ug/ml: 0.9
[32]
  fraction unbound at 1 ug/ml: 0.847
[33]
  fold change (FC): 3.66
[34]
  Ki: 0.0043 µM
[35]
  fold change (FC): 3.95
[36]
  Activity: Dose-dependent effect
[37]
  Activity: 3.6 mg
[38]
  Ki: 3.68 µM
[39]
  fold change (FC): 1.67

## CC1CNc2c(cccc2S(=O)(=O)N[C@@H](CCCNC(=N)N)C(=O)N2CC[C@@H](C)C[C@@H]2C(=O)O)C1 (stereo partly specified) [ARGATROBAN]
[20]
  Ki: 87.8 µM
[26]
  Ki: 257 µM
[34]
  Ki: 1.99 µM
[38]
  Ki: 53 µM
